Test results reported in patent US5229109A, “Low toxicity interleukin-2 analogues for use in immunotherapy” (priority 1992, dated 1993).

Assays:
IL-2 receptor p75 = molecular target: T1, IL-2 receptor p75 (Homo sapiens, UniProt P14784); experiment: IL-2 specific binding assay, intermediate affinity receptor
T1 construct: Each assay contained approximately 6×10^5 cells; endogenous in cells
T1 sequence (P14784 27-551): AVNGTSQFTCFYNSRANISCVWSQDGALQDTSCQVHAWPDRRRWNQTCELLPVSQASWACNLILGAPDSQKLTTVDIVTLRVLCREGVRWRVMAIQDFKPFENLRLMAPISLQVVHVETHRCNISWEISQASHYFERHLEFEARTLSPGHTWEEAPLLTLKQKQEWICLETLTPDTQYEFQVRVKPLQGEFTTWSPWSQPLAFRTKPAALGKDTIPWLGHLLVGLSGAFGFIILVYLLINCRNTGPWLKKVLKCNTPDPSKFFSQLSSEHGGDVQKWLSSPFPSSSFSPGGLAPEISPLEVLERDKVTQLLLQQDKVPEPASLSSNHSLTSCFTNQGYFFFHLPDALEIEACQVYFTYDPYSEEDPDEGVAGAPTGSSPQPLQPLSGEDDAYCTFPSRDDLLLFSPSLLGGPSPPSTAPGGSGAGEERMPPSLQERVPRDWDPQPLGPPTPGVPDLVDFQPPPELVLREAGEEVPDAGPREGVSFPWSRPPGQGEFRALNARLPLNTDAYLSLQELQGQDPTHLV
T1 sequence (P31785 23-369 partner): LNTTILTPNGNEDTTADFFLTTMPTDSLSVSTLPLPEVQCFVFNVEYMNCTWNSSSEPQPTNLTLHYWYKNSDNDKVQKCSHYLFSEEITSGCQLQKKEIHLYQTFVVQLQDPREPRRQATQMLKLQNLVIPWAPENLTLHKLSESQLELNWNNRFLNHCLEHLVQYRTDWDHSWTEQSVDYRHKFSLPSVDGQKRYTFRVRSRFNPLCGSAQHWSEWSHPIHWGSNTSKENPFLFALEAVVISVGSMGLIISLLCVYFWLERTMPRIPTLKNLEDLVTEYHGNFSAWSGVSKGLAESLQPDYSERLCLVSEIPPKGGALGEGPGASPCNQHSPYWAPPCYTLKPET
Procedure: The cells were then incubated for 1 hour at 37° C. and the washing procedure was repeated three times. […] Nonspecific binding was determined by inclusion of 50 nM unlabeled human rIL-2 in the assay. Incubations were carried out in duplicate or triplicate for 20 minutes at 37° C.

[1] = system: peripheral blood mononuclear cells (IL-1β secretion); experiment: IL-1β secretion by PBMC, ELISA of LAK culture supernatants; assay type: cell-based, human; details: for IL-1β secretion decreased: maximal decrease vs native IL-2, supernatants at 24 hour intervals up to 7 days
Procedure: (§1) The abilities of the same concentrations of IL-2 and the analogues to stimulate peripheral blood mononuclear cells to secrete IL-1β and TNF-α in vitro were first compared. At 24 hour intervals up to 7 days, the LAK culture supernatants from the above-described experiment were collected and tested for IL-1β and TNF-α content using ELISA methodology. Commercially available ELISA kits were purchased from R & D Systems (TNF-α and TNF-β ), Immunotech (IL-1α and IL-1β), and Endogen (IFN-γ). The ELISAs were performed according to the protocols supplied by the manufacturer.
(§2) Fresh peripheral blood mononuclear cells (PBMC) obtained from leukopharesis of normal human donors were isolated over a Ficoll-Hypaque gradient. […] Non-adherent cells were tested for cytotoxicity against Daudi targets by a 4 hour ^51 Cr release assay, with specific lysis being presented as the mean of triplicate values. Cell-free supernatants from 3 day PBMC cultures were analyzed by ELISA for cytokine content.

[2] = system: peripheral blood mononuclear cells (TNF-α secretion); experiment: TNF-α secretion by PBMC, ELISA of LAK culture supernatants; assay type: cell-based, human; details: for TNF-α decreased: maximal decrease vs native IL-2, supernatants at 24 hour intervals up to 7 days
Procedure: as §1, §2

Daudi targets = experiment: LAK generation, 4 hour 51Cr release cytotoxicity assay; assay type: cell-based, human; details: 100:1 effector:target ratio; 0.5 nM native IL-2 or 1 nM mutants
Procedure: The abilities of optimal concentrations of IL-2 and the analogues to stimulate peripheral blood mononuclear cells to generate lymphokine activated killing (LAK) in vitro were next compared.
as §2

[3] = molecular target: T2, low affinity receptor p55 (Homo sapiens, UniProt P01589); details: Sauve et al., 1991; cited from earlier work
T2 sequence (P01589 22-272): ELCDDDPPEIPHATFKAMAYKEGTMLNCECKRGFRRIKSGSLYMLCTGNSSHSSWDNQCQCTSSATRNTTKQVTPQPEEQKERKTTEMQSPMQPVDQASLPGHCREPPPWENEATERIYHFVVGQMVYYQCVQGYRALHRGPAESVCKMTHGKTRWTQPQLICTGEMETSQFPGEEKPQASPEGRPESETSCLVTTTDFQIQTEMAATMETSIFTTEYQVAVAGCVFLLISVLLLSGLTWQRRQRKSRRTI

[4] = molecular target: T3, intermediate receptor p75 (Homo sapiens, UniProt P14784); details: Sauve et al., 1991; cited from earlier work
T3 sequence (P14784 27-551): T1 sequence (P14784 27-551)
T3 sequence (P31785 23-369 partner): T1 sequence (P31785 23-369 partner)

[5] = system: IL-2 receptor p55 on PBMC; experiment: FACS analysis of p55 expression on cultured PBMC; assay type: cell-based, human; details: cultures stimulated for 72 hours
Procedure: Cultured PBMC were washed with PBS, 1% bovine serum albumin (BSA), and 0.1% sodium azide. To approximately one million cells, FITC-labelled monoclonal antibody against IL-2 receptor p55 or a non-specific control mouse IgG (Becton-Dickinson) was added. Following incubation for 30 minutes, the cells were washed twice using a Sorvall cell washer 2L, then fixed in PBS and 1% paraformaldehyde. The cells were then analyzed on Becton-Dickinson FACScan and results were presented as per cent of gated cells positive for p55 after subtraction of non-specific background fluorescence.

[6] = all time points, p<0.05, 3-way ANOVA

| Substance | ability to bind IL-2 receptor p75 (IL-2 receptor p75) | IL-1β secretion decreased [1] | TNF-α decreased [2] | % maximal specific lysis (Daudi targets) | binding to the low affinity receptor p55 [3] | affinity for the intermediate receptor p75 [4] | IL-1β compared to that produced in response to native IL-2 [1, 6] | TNF-α compared to that produced in response to native IL-2 [2, 6] | percentage of cells expressing p55 [5] | percentage of cells expressing p55 doubled [5] |
| --- | --- | --- | --- | --- | --- | --- | --- | --- | --- | --- |
| R38A | maintain their ability to bind | ≤ 28% | ≤ 66% | 55% | could no longer bind | maintained their affinity |  |  |  |  |
| F42K: recombinant human IL-2 analogue, Phenylalanine (F) at position 42→Lysine (K) | maintain their ability to bind | up to 43% | ≤ 77% | 54% | could no longer bind | maintained their affinity | significantly decreased | significantly decreased | 30% | doubled |
